What was measured:
[1] = tested on: larvae of the mustard beetle (Phaedon cochleariae); test: Phaedon test (PHAECO spray treatment); format: in vivo; details: 500 g/ha, spray, after 7 days
How it was run: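 Chinese cabbage leaf discs sprayed with compound formulated in acetone/dimethylformamide with alkylaryl polyglycol ether emulsifier, diluted in emulsifier-containing water to the desired concentration. After drying, discs were populated with mustard beetle larvae.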

Lucilia cuprina larvae = test: Lucilia cuprina test (LUCICU); format: in vivo; details: 100 ppm, after 2 days
Description: Lucilia cuprina Test (LUCICU)
(§1) Solvent: Dimethyl Sulphoxide
(§2) To produce a suitable preparation of active compound, 10 mg of active compound are mixed with 0.5 ml of dimethyl sulphoxide and the concentrate is diluted with water to the desired concentration. Vessels containing horsemeat treated with the active compound preparation of the desired concentration are populated with about 20 Lucilia cuprina larvae.
After 2 days, the kill in % is determined. 100% means that all larvae have been killed; 0% means that none of the larvae have been killed.

Boophilus microplus = Boophilus microplus test (BOOPMI injection); format: in vivo; details: 20 μg/animal, injection into the abdomen, after 7 days
Description: Boophilus microplus Test (BOOPMI Injection)
as §1
To produce a suitable preparation of active compound, 10 mg of active compound are mixed with 0.5 ml of solvent and the concentrate is diluted with solvent to the desired concentration. The solution of active compound is injected into the abdomen (Boophilus microplus), and the animals are transferred into dishes and kept in a climatized room. The activity is assessed by […] of fertile eggs.
After 7 days, the effect in % is determined 100% means that none of the ticks has laid any fertile eggs.

Ctenocephalides felis = Ctenocephalides felis oral test (CTECFE); format: in vivo; details: 100 ppm in citrated cattle blood, after two days
Description: Ctenocephalides Felis Oral Test (CTECFE)
Solvent: 1 Part by Weight of Dimethyl Sulphoxide
To produce a suitable preparation of active compound, 10 mg of active compound are mixed with 0.5 ml of dimethyl sulphoxide. Part of the concentrate is diluted with citrated cattle blood, and the desired concentration is prepared.
About 20 unfed adult fleas (Ctenocephalides felis) are placed into a chamber which is closed at the top and bottom with gauze. A metal cylinder whose bottom end is closed with parafilm is placed onto the chamber. The cylinder contains the blood/active compound preparation, which can be taken up by the fleas through the parafilm membrane. After two days, the kill in % is determined 100% means that all fleas have been killed; 0% means that none of the fleas have been killed.

[2] = tested on: green peach aphid (Myzus persicae); test: Myzus test (MYZUPE spray treatment); format: in vivo; details: 500 g/ha, spray, after 6 days
How it was run: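 Chinese cabbage leaf discs infested with all aphid stages were sprayed with compound in acetone/DMF with emulsifier, diluted in emulsifier-containing water. Mortality in % assessed after 6 days (100% = all aphids killed).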

[3] = tested on: Anopheles gambiae (homocygus kdr); test: Anopheles test (ANPHGB surface treatment); format: in vivo; details: 100 mg/m^2, two hours after contact, exposition 30 minutes
How it was run: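 Compound dissolved in acetone at 2 mg/ml, pipetted onto glazed tile and dried; adult kdr-homozygous mosquitoes exposed on the tile for 30 min. Knock-down (%) read 2 h and mortality (%) 24 h after contact.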

[4] = tested on: greenhouse red spider mite (Tetranychus urticae); test: Tetranychus test; OP-resistant (TETRUR spray treatment); format: in vivo; details: 500 g/ha, spray, after 6 days
How it was run: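 Bean leaf discs infested with all stages of OP-resistant Tetranychus urticae were sprayed with compound in acetone/DMF with alkylaryl polyglycol ether emulsifier, diluted in emulsifier-water. Mortality was scored after 6 days: 100% means all mites killed, 0% none.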

[5] = tested on: Boophilus microplus strain Parkhurst, SP-resistant; test: Boophilus microplus test (DIP); format: in vivo; details: 100 ppm, after 7 days
Description: Boophilus microplus Test (DIP) Test Animals: Adult Fat Females of the Boophilus microplus Strain Parkhurst—SP-Resistant) Solvent: Dimethyl Sulphoxide
10 mg of active compound are dissolved in 0.5 ml of dimethyl sulphoxide. To produce a suitable formulation, the active compound solution is diluted with water to the particular desired concentration.
This active compound preparation is pipetted into tubes. 8-10 ticks are transferred into a further tube provided with holes. The tube is dipped into the active compound preparation, with all the ticks being wetted completely. After the liquid has run off, the ticks are transferred to filter discs in plastic dishes and kept in a climatized room. After 7 days, the activity is checked for deposition of fertile eggs. Eggs whose fertility is not visible from the outside are kept in glass tubes in a climatized cupboard until the larvae have hatched. An activity of 100% means that no tick has laid fertile eggs.

[6] = tested on: caterpillars of the army worm (Spodoptera frugiperda); test: Spodoptera frugiperda test (SPODFR spray treatment); format: in vivo; details: 500 g/ha, spray, after 7 days
How it was run: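 Maize leaf discs sprayed with compound formulated in acetone/dimethylformamide plus alkylaryl polyglycol ether emulsifier and diluted in water, then infested with Spodoptera frugiperda caterpillars once dry. Mortality scored after 7 days as % activity, where 100% means all caterpillars killed.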

Musca domestica = Musca domestica test (MUSCDO); format: in vivo; details: 100 ppm, after 2 days
Description: Musca domestica Test (MUSCDO)
as §1
as §2, with “a sponge” for “horsemeat”, “adult Musca domestica.” for “about 20 Lucilia cuprina larvae.”
After 2 days, the kill in % is determined 100% means that all flies have been killed; 0% means that none of the flies have been killed.

[7] = tested on: cat fleas (Ctenocephalides felis, fully sensitive laboratory strain); test: Contact test against fleas in-vitro (CTECFE contact); format: in vivo; details: 500 g/ha, after 48 h
How it was run: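 Test tubes coated from acetone solutions by rotation, top concentration 500 g/ha (500 μg/dm^2) on tube surface, serial 1:5 dilutions. 10-20 CO2-anesthetized adult fleas held at room temperature for 24 and 48 h. Activity scored versus acetone control: knock-down or death of all fleas = 100%.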

Aedes aegypti = test: Aedes test (AEDSAE surface treatment); format: in vivo; details: 100 mg/m^2, two hours after contact, exposition 30 minutes
How it was run: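 Compound dissolved in acetone (2 mg/ml) and dried onto a glazed tile; adult mosquitoes exposed for 30 minutes. Knock-down % scored at 2 hours and mortality % at 24 hours after contact (100% = all killed).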

[8] = logP determination by HPLC on reversed-phase columns (C18), LC-MS neutral; format: physicochemical; details: pH 7.8, HPLC on C18, calibration with alkan-2-ones
Culex quinquefasciatus = test: whole plant or invertebrate; format: in vivo; details: 100 mg/m^2, two hours after contact, exposition 30 minutes
Description: Culex Test (CULXFA Surface Treatment) Solvent: Acetone
(§3) To produce a suitable preparation of active compound, the active compound is dissolved in acetone (2 mg/ml). The active compound preparation is pipetted onto a glazed tile and, after drying, adult mosquitoes of the species Culex quinquefasciatus are placed onto the treated tile. The exposition time is 30 minutes.
(§4) Two hours after contact to the treated surface, the knock-down proportion of the test animals in % is determined.
(§5) 24 hours after contact to the treated surface, the mortality in % is determined. Here, 100% means that all mosquitoes have been killed; 0% means that none of the mosquitoes has been killed.

[9] = tested on: Anopheles funestus strain FUMOZ-R; format: in vivo; details: 100 mg/m^2, two hours after contact, exposition 30 minutes
Description: Anopheles Test (ANPHFU Surface Treatment) Solvent: Acetone
as §3, with “Anopheles funestus strain FUMOZ-R (Hunt et al., Med Vet Entomol. 2005 September; 19(3):271-5)” for “Culex quinquefasciatus”
as §4, §5

With `Cc1ccc(N=C2C(=CSc3ccccc3)C(C)c3ccccc32)cc1` (mixture of isomers) [Example 1-5] the “activity (beetle larvae killed)” value [1] was 100%, the “activity (kill in %)” value (Lucilia cuprina larvae) was 100% and the “activity (100% = none of the ticks has laid any fertile eggs)” value (Boophilus microplus) was 100%. The “activity (kill in %)” value (Ctenocephalides felis) was 100%, the “activity (aphids killed)” value [2] was 100% and the knock-down activity [3] was 100%. The “activity (spider mites killed)” value [4] was 100%, the “activity (100% = no tick has laid fertile eggs)” value [5] was 100% and the “activity (caterpillars killed)” value [6] was 100%. For the same compound, the “activity (kill in %)” value (Musca domestica) was 100% and the “activity against cat fleas” value [7] was 100%.
For `Cc1ccc(N=C2C(=CSc3ccc(F)cc3)CCc3sccc32)cc1` (mixture of isomers) [Example 1-26], the “activity (beetle larvae killed)” value [1] was 100%, the “activity (kill in %)” value (Lucilia cuprina larvae) was 100% and the “activity (100% = none of the ticks has laid any fertile eggs)” value (Boophilus microplus) was 100%. The “activity (kill in %)” value (Ctenocephalides felis) was 95%, the “activity (aphids killed)” value [2] was 100% and the “activity (spider mites killed)” value [4] was 100%. The “activity (100% = no tick has laid fertile eggs)” value [5] was 100%, the “activity (caterpillars killed)” value [6] was 100% and the “activity (kill in %)” value (Musca domestica) was 100%. For the same compound, the “activity against cat fleas” value [7] was 100%.
In the case of `Cc1ccc(N=C2C(=CSc3ccc(F)cc3)C(C)c3cccc(F)c32)cc1` (mixture of isomers) [Example 1-27], the “activity (beetle larvae killed)” value [1] is reported as 100%, the “activity (kill in %)” value (Lucilia cuprina larvae) is reported as 100% and the “activity (100% = none of the ticks has laid any fertile eggs)” value (Boophilus microplus) is reported as 100%. For the same compound, the “activity (kill in %)” value (Ctenocephalides felis) was 100%, the “activity (aphids killed)” value [2] was 100% and the knock-down activity [3] was 100%. For the same compound, the “activity (spider mites killed)” value [4] was 100%, the “activity (100% = no tick has laid fertile eggs)” value [5] was 100% and the “activity (caterpillars killed)” value [6] was 100%. The knock-down activity (Aedes aegypti) was 100%, the “activity (kill in %)” value (Musca domestica) was 100% and the “activity against cat fleas” value [7] was 100%.
With `Cc1ccc(N=C2C(=CSc3ccc(F)cc3)CCc3cc(F)cc(F)c32)cc1` (mixture of isomers) [Example 1-33] the “activity (beetle larvae killed)” value [1] was 100%, the “activity (kill in %)” value (Lucilia cuprina larvae) was 100% and the “activity (100% = none of the ticks has laid any fertile eggs)” value (Boophilus microplus) was 100%. For the same compound, the “activity (kill in %)” value (Ctenocephalides felis) was 95%, the “activity (aphids killed)” value [2] was 80% and the “activity (100% = no tick has laid fertile eggs)” value [5] was 100%. For the same compound, the “activity (caterpillars killed)” value [6] was 100%, the “activity (kill in %)” value (Musca domestica) was 80% and the “activity against cat fleas” value [7] was 100%.
For `CC1C(=CSc2ccccc2)C(=Nc2ccc(Cl)cc2)c2ccccc21` (stereo not drawn) [Example 1-11], the logP [8] was “LC-MS (neutral)*: logP = 6.38, (M + H)^+ = 376”.
In the case of `Cc1ccc(N=C2C(=CSc3ccc(F)cc3)COc3ccccc32)cc1` [Example 1-36], the “activity (beetle larvae killed)” value [1] is reported as 100%, the “activity (kill in %)” value (Lucilia cuprina larvae) is reported as 100% and the “activity (100% = none of the ticks has laid any fertile eggs)” value (Boophilus microplus) is reported as 100%. For the same compound, the “activity (kill in %)” value (Ctenocephalides felis) was 90%, the “activity (aphids killed)” value [2] was 100% and the knock-down activity [3] was 100%. For the same compound, the “activity (spider mites killed)” value [4] was 100%, the “activity (caterpillars killed)” value [6] was 100% and the knock-down activity (Aedes aegypti) was 100%. The “activity against cat fleas” value [7] was 100% and the knock-down activity (Culex quinquefasciatus) was 100%.
In the case of `Cc1ccc(N=C2CCCCCC2=CSc2ccccc2)cc1` [Example 1-38], the logP [8] is reported as “LC-MS (neutral)*: logP = 6.20, (M + H)^+ = 322”, the knock-down activity [3] is reported as 100% and the knock-down activity (Aedes aegypti) is reported as 100%. The “activity against cat fleas” value [7] was 100%.
In the case of `Cc1ccc(N=C2C(=CSc3ccc(F)cc3)C3CCC2C3)cc1` (stereo not drawn) [Example 1-40], the “activity (beetle larvae killed)” value [1] is reported as 100%, the knock-down activity [3] is reported as 100% and the “activity (spider mites killed)” value [4] is reported as 100%. For the same compound, the knock-down activity (Aedes aegypti) was 100% and the knock-down activity [9] was 100%.
For `Cc1ccc(N=C2C(=CSc3ccc(F)cc3)CCc3cc(C)ccc32)cc1` [Example 1-46], the “activity (beetle larvae killed)” value [1] was 100%, the “activity (aphids killed)” value [2] was 100% and the knock-down activity [3] was 100%. The “activity (spider mites killed)” value [4] was 100%, the “activity (caterpillars killed)” value [6] was 100% and the knock-down activity (Aedes aegypti) was 100%. For the same compound, the “activity against cat fleas” value [7] was 100% and the knock-down activity (Culex quinquefasciatus) was 100%.
With `CC(=O)Nc1ccc2c(c1)CCC(=CSc1ccc(F)cc1)C2=Nc1ccc(C)cc1` [Example 1-48] the logP [8] was “LC-MS (neutral)*: logP = 4.64, (M + H)^+ = 431”.
For `Cc1ccc(N=C2C(=CSc3ccc(F)cc3)CCCC2=Cc2ccccc2)cc1` [Example 1-56], the logP [8] was “LC-MS (neutral)*: logP = 7.01, (M + H)^+ = 414”.
For `Cc1ccc(N=C2C(=CSc3ccc(F)cc3)COc3cc(F)ccc32)cc1` [Example 1-58], the “activity (beetle larvae killed)” value [1] was 100%, the “activity (aphids killed)” value [2] was 100% and the knock-down activity [3] was 100%. For the same compound, the “activity (spider mites killed)” value [4] was 100%, the “activity (caterpillars killed)” value [6] was 100% and the knock-down activity (Aedes aegypti) was 100%. The “activity against cat fleas” value [7] was 100% and the knock-down activity (Culex quinquefasciatus) was 100%.
In the case of `Cc1ccc(N=C2C(=CSc3ccccc3)C3CCC2C3)cc1` (stereo not drawn) [Example 1-100], the “activity (beetle larvae killed)” value [1] is reported as 100%, the “activity (aphids killed)” value [2] is reported as 100% and the knock-down activity [3] is reported as 100%. For the same compound, the “activity (caterpillars killed)” value [6] was 100%, the knock-down activity (Aedes aegypti) was 100% and the knock-down activity [9] was 100%.
